Values quoted from earlier work as cited in patent US20100055036A1, “PET VISUALIZATION OF AMYLOID-ASSOCIATED NEUROINFLAMMATION IN THE BRAIN” (National Institute of Radiolotgical Sciences, priority 2007, published 2010).

Tested on: amyloid plaque lesions in mouse brain
Details: mice developing abundant plaque lesions vs WT

## [11CH3]Nc1ccc(-c2nc3ccc(O)cc3s2)cc1 [[^11C]6-OH-BTA-1, N-[^11C]methyl-2-(4′-methylaminophenyl)-6-hydroxybenzothiazole]
  PET data in brains of plaque-bearing mice compared with wild-type mouse brains: virtually indistinguishable
